Reference: patent US6492416B1, “4,5-diaryl-3(2H)-furanone derivatives as cyclooxygenase-2 inhibitors” (Pacific Corporation, priority 1999, dated 2002)
Converted amounts (≈) assume the structure as drawn.

Tests used:
COX-1 = target: T1, COX-1 (Mus musculus, UniProt P22437); assay: Evaluation of COX-1 activity: PGE2 formation in mouse peritoneal macrophages without aspirin and LPS treatment; format: cell-based; conditions: for IC50: read-out: IC50, μg/ml COX-1 (converted)
T1 sequence (P22437 27-602): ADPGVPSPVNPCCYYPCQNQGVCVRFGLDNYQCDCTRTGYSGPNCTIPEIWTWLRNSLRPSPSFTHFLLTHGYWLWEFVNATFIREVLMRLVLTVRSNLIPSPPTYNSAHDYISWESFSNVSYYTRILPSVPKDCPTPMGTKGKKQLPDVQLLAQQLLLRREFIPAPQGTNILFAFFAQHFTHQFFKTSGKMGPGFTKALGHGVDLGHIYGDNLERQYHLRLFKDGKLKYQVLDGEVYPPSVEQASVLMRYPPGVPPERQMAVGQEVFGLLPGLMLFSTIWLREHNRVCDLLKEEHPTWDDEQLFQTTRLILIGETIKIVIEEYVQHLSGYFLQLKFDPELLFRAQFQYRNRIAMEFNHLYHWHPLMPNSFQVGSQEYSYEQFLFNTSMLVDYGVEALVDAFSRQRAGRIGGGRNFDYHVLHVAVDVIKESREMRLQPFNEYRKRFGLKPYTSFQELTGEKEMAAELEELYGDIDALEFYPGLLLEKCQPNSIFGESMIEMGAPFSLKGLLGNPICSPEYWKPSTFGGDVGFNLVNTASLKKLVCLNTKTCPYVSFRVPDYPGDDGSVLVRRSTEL
Procedure, shortened: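 Peritoneal macrophages from C57BL/6 mice, without aspirin or LPS treatment, were plated at 1×10^6 cells/ml and fixed 2 h at 37 °C. Cells were preincubated 10 min, then given 10 μM arachidonic acid plus compound for 10 min; PGE2 was measured by RIA or EIA. IC50 came from 4–5 concentrations.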

COX-2 = target: T2, COX-2 (Mus musculus, UniProt Q05769); assay: Evaluation of COX-2 activity: PGE2 formation in aspirin-treated, LPS-stimulated mouse peritoneal macrophages; format: cell-based; conditions: for IC50: read-out: IC50, μg/ml COX-2 (converted)
T2 sequence (Q05769 18-604): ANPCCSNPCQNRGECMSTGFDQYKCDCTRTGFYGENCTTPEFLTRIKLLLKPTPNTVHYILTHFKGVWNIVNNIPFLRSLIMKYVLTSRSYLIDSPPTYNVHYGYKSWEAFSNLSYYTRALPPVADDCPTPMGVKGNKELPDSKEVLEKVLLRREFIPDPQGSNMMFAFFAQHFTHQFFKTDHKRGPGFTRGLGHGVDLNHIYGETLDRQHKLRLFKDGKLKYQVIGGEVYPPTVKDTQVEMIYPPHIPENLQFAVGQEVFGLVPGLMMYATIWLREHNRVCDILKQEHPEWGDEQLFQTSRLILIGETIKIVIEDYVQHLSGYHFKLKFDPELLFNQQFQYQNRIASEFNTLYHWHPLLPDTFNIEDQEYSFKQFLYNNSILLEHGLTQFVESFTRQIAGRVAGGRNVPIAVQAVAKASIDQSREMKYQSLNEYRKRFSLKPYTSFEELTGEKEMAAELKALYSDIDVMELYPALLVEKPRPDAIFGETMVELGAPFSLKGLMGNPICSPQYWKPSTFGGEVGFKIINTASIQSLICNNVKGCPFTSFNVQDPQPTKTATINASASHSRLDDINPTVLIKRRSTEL
Procedure, shortened: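 C57BL/6 peritoneal macrophages treated with 500 μM aspirin to block COX-1, adhered, then stimulated with 10 μg/ml LPS for 16 h at 37 °C to induce COX-2.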

Row | SMILES | IC50, μg/ml COX-1 (COX-1) [µg/mL] | IC50, μg/ml COX-2 (COX-2) [µg/mL] | melting point [°C] | IC50 (COX-1) [µM] | IC50 (COX-2) [nM]
1 | CCCCc1ccc(C2=C(c3ccc(S(C)(=O)=O)cc3)OC(C)(C)C2=O)cc1 [Example 97] | 5 (≈ 12.5 µM) | 0.002 (≈ 0.00502 µM) | 84 to 85 | – | –
2 | COc1ccccc1C1=C(c2ccc(S(C)(=O)=O)cc2)OC(C)(C)C1=O [Example 64] | 50 (≈ 134 µM) | 0.1 (≈ 0.268 µM) | 109 to 111 | – | –
3 | CC1(C)OC(c2ccc(S(C)(=O)=O)cc2F)=C(c2ccc(F)cc2)C1=O [Example 324] | 3 (≈ 7.93 µM) | 0.03 (≈ 0.0793 µM) | 150 to 152 | – | –
4 | CC1(C)OC(c2ccc(S(N)(=O)=O)cc2)=C(c2ccco2)C1=O [Example 160] | >10 | 0.057 (≈ 0.171 µM) | 156 to 157 | – | –
5 | CC1(C)OC(c2ccc(S(C)(=O)=O)cc2)=C(c2cccc(N)c2)C1=O [Example 66, 4-(3-aminophenyl)-2,2-dimethyl-5-{4-(methylsulfonyl)phenyl}-3(2H)-furanone] | 50 (≈ 140 µM) | 0.05 (≈ 0.14 µM) | 186 to 187 | – | –
6 | Cc1ccc(C2=C(c3ccc(S(C)(=O)=O)cc3)OC(C)(C)C2=O)s1 [Example 122] | 3 (≈ 8.28 µM) | 0.03 (≈ 0.0828 µM) | 141 to 142 | – | –
7 | CC1(C)OC(c2ccc(S(C)(=O)=O)c(F)c2)=C(c2ccc(F)cc2F)C1=O [Example 281] | 10 (≈ 25.2 µM) | 0.1 (≈ 0.252 µM) | 183 to 184 | – | –
8 | CC1(C)OC(c2ccc(S(C)(=O)=O)cc2)=C(c2cccc([N+](=O)[O-])c2)C1=O [Example 6, 2,2-Dimethyl-5-{4-(methylsulfonyl)phenyl}-4-(3-nitrophenyl)-3(2H)-furanone] | 5 (≈ 12.9 µM) | 0.05 (≈ 0.129 µM) | 158 to 159 | – | –
9 | CC1(C)OC(c2ccc(S(N)(=O)=O)cc2)=C(c2ccc(F)c(F)c2)C1=O [Example 138] | 1.94 (≈ 5.11 µM) | 0.0067 (≈ 0.0177 µM) | 210 to 211 | – | –
10 | CC1(C)OC(c2ccc(S(N)(=O)=O)cc2F)=C(c2ccccc2)C1=O [Example 332, 5-{4-(Aminosulfonyl)-2-fluorophenyl}-2,2-dimethyl-4-phenyl-3(2H)-furanone] | 5 (≈ 13.8 µM) | 0.03 (≈ 0.083 µM) | 79 to 81 | – | –
11 | CSc1ccc(C2=C(c3cc(F)cc(F)c3)C(=O)C(C)(C)O2)cc1Br [Example 340] | 30 (≈ 70.5 µM) | 10 (≈ 23.5 µM) | 115 to 116 | – | –
12 | CC1(C)OC(c2ccc(S(C)(=O)=O)c(F)c2)=C(c2ccccc2)C1=O [Example 273] | 20 (≈ 55.5 µM) | 0.03 (≈ 0.0832 µM) | 190 to 191 | – | –

Continued, values first:

Row | IC50, μg/ml COX-1 (COX-1) [µg/mL] | IC50, μg/ml COX-2 (COX-2) [µg/mL] | melting point [°C] | IC50 (COX-1) [µM] | IC50 (COX-2) [nM] | SMILES
13 | 3 (≈ 8.71 µM) | 0.2 (≈ 0.581 µM) | 149 to 150 | – | – | C[S+]([O-])c1ccc(C2=C(c3ccccc3)C(=O)C(C)(C)O2)cc1F (stereo not drawn) [Example 291, 2,2-dimethyl-5-{3-fluoro-4-(methylsulfinyl)phenyl}-4-phenyl-3(2H)-furanone]
14 | 20 (≈ 55.5 µM) | 0.03 (≈ 0.0832 µM) | 175 to 176 | – | – | CC1(C)OC(c2ccc(S(C)(=O)=O)cc2F)=C(c2ccccc2)C1=O [Example 321]
15 | – | – | 48 to 49 | 8.1 | 81 | CCC1(C)OC(c2ccc(S(C)(=O)=O)cc2)=C(c2cccc(C)c2)C1=O (stereo not drawn) [Example 193]
16 | 30 (≈ 75.7 µM) | 0.03 (≈ 0.0757 µM) | 140 to 141 | – | – | CC1(C)OC(c2ccc(S(C)(=O)=O)c(F)c2)=C(c2cc(F)ccc2F)C1=O [Example 282]
17 | 3 (≈ 7.8 µM) | 0.03 (≈ 0.078 µM) | 96 to 97 | – | – | CCC1(CC)OC(c2ccc(S(C)(=O)=O)cc2)=C(c2ccc(C)cc2)C1=O [Example 245]
18 | 90 (≈ 214 µM) | 0.3 (≈ 0.712 µM) | 154 to 155 | – | – | CC1(C)OC(c2ccc(S(C)(=O)=O)c(Br)c2)=C(c2ccccc2)C1=O [Example 341, 5-{3-Bromo-4-(methylsulfonyl)phenyl}-2,2-dimethyl-4-phenyl-3(2H)-furanone]
19 | 300 (≈ 727 µM) | 0.05 (≈ 0.121 µM) | 200 to 201 | – | – | CC1(C)OC(c2ccc(S(C)(=O)=O)c(Cl)c2)=C(c2cc(F)cc(F)c2)C1=O [Example 362]
20 | 3 (≈ 8.01 µM) | 0.03 (≈ 0.0801 µM) | 138 to 139 | – | – | Cc1cc(C2=C(c3cccc(F)c3)C(=O)C(C)(C)O2)ccc1S(C)(=O)=O [Example 378, 2,2-Dimethyl-4-(3-fluorophenyl)-5-{3-methyl-4-(methylsulfonyl)phenyl}-3(2H)-furanone]
21 | 50 (≈ 109 µM) | 0.03 (≈ 0.0656 µM) | 194 to 195 | – | – | CC1(C)OC(c2ccc(S(C)(=O)=O)c(Br)c2)=C(c2cc(F)cc(F)c2)C1=O [Example 345]
22 | 5 (≈ 13.4 µM) | 0.05 (≈ 0.134 µM) | 159 to 160 | – | – | Cc1ccc(F)cc1C1=C(c2ccc(S(C)(=O)=O)cc2)OC(C)(C)C1=O [Example 94]
23 | >10 | 0.055 (≈ 0.147 µM) | 259 to 260 | – | – | COc1cccc(C2=C(c3ccc(S(N)(=O)=O)cc3)OC(C)(C)C2=O)c1 [Example 135]
24 | 50 (≈ 161 µM) | 3 (≈ 9.66 µM) | 109 to 110 | – | – | CSc1ccc(C2=C(c3ccccc3)C(=O)C(C)(C)O2)cc1 [Example 167]
25 | 200 (≈ 505 µM) | 0.05 (≈ 0.126 µM) | 150 to 151 | – | – | CC1(C)OC(c2ccc(S(C)(=O)=O)cc2F)=C(c2cc(F)ccc2F)C1=O [Example 325]
26 | – | – | 45 to 46 | 47.1 | 118 | CCC1(C)OC(c2ccc(S(C)(=O)=O)cc2)=C(c2cccc(C(F)(F)F)c2)C1=O (stereo not drawn) [Example 194]
27 | 10 (≈ 26.4 µM) | 0.03 (≈ 0.0793 µM) | 157 to 158 | – | – | CC1(C)OC(c2ccc(S(C)(=O)=O)cc2F)=C(c2cccc(F)c2)C1=O [Example 323]
